# Values of other authors in patent publication US20070148194A1, “Novel nanoemulsion formulations” (priority 2005, published 2007).
# Test system: HIV
# Settings: in vitro; read-out: anti-HIV activity in vitro, IC50
structure (smiles),measurement,value
"CC(C)(C)NC(=O)[C@@H]1C[C@@H]2CCCC[C@@H]2CN1C[C@@H](O)[C@H](Cc1ccccc1)NC(=O)[C@H](CC(N)=O)NC(=O)c1ccc2ccccc2n1 [SQV, Saquinavir]",IC50,0.02 µM
